Assay results published in paper PMC5877509, “Cys Site-Directed Mutagenesis of the Human SLC1A5 (ASCT2) Transporter: Structure/Function Relationships and Crucial Role of Cys467 for Redox Sensing and Glutamine Transport” (International Journal of Molecular Sciences, 2018).
Changes are numbered by the printed parent chain.

Columns and labels:
Type in all cases: biochemical
[1] = molecular target: T1, hASCT2 (Homo sapiens, UniProt Q15758); assay: [3H]Gln transport inhibition in proteoliposomes at […]
T1 construct: gene SLC1A5; recombinant hASCT2-His6, purified from P. pastoris, in proteoliposomes
T1 sequence (Q15758 1-541): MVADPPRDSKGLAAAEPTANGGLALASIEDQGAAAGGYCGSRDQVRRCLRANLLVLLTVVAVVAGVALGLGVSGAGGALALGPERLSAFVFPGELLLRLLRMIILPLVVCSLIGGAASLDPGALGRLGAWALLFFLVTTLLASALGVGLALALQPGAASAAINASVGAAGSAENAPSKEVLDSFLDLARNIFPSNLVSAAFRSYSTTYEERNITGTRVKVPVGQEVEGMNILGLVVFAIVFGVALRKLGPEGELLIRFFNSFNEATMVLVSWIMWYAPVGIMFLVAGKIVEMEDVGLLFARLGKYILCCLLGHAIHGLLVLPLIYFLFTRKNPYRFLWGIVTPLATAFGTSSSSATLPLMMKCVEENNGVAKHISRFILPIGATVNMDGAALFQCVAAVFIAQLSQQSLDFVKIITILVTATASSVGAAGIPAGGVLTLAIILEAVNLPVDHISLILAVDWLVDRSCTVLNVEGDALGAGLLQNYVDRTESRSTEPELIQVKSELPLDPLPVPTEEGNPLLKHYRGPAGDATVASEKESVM

[2] = molecular target: T2, hASCT2 (Homo sapiens, UniProt Q15758, C467A); assay: [3H]Gln transport inhibition in proteoliposomes, dose-response
T2 construct: gene SLC1A5; recombinant hASCT2-His6, purified from P. pastoris, in proteoliposomes
T2 sequence (Q15758 1-541 C467A): T1 sequence (Q15758 1-541) with C467A

[3] = molecular target: T2, hASCT2; assay: [3H]Gln transport kinetics (external Km) in proteoliposomes
[4] = molecular target: T1, hASCT2; assay: as above
[5] = molecular target: T1, hASCT2; assay: [3H]Gln transport inhibition in proteoliposomes, dose-response
[6] = molecular target: T1, hASCT2; assay: [3H]Gln transport inhibition in proteoliposomes at […]; conditions: read-out: % inhibition at 1 mM

Q: What does the source list for `N[C@@H](CS)C(=O)O` [Cys]?
A: [3H]Gln transport inhibition in proteoliposomes at 1 mM [1]: While Cys strongly inhibited the transport; in this case, inhibition occurred by a mechanism not involving S-S/SH inter-conversion; IC50 [2]: 16.6 ± 1.62 µM

Q: What does the source list for `NC(=O)CC[C@H](N)C(=O)O` [Gln]?
A: Km [3]: 202 ± 33 µM; Km [4]: 35 ± 10 µM

Q: How did the IC50 [5] turn out when `CS(=O)(=O)SCCS(=O)(=O)O` [MTSES, Sodium (2-sulfonatoethyl)methane thiosulfonate] was run?
A: 129 ± 21 µM

Q: `CCN1C(=O)C=CC1=O` [NEM] was tested. Which inhibition at 1000 µM [6] did it give?
A: ~50%
